Measured values as given in patent US12458647B2, “Macrocyclic derivative and use thereof” (Guangzhou Joyo Pharmatech Co., Ltd., priority 2022, dated 2025).

Experiments:
[1] = In vitro determination of whole blood to plasma concentration ratios, human; format: in vitro ADME; details: 1 μM, 37° C., 60 minutes
Method: (§1) (1) Fresh mouse and human whole blood (n≥3 for number of individual animals and n≥2 for number of individual humans) were collected in blood collection tubes containing EDTAK2 anticoagulant. Whole blood samples had to be mixed well and stored at 2-8° C. or on wet ice before use. They were used within 36 hours of whole blood collection. Blank whole blood was centrifuged at 2,000×g for 15 minutes at room temperature to obtain blank plasma. The plasma status was checked and hemolyzed plasma samples could not be used.
(§2) (2) The hematocrit (the percentage content of red blood cells in whole blood) was determined by centrifugation of whole blood samples in microhematocrit centrifuge tubes.
(§3) (3) Diclofenac (all species), chlorthalidone (mouse) or chloroquine (human) were used as control compounds.
(§4) (4) ACN solution containing 2% DMSO with a final concentration of 1 μM of the test compound was added to blank whole blood samples, and three parallel treatments were performed. The final content of the organic phase in the system should not exceed 0.5% (the content of DMSO should not exceed 0.1%). A certain volume of the drug-containing whole blood sample was pipetted to the sample receiving plate (three replicates), an equal volume of blank plasma was added, and mixed well to obtain the T0 sample.
(§5) (5) The whole blood sample containing the test compound was incubated at 37° C. with shaking for 60 minutes.
(§6) (6) After the end of incubation, a certain volume of whole blood samples containing the drug was pipetted to the sample receiving plate (three replicates) as T60-whole blood samples.
(§7) (7) The remaining whole blood samples were centrifuged at 2,000×g for 15 minutes in a 37° C. centrifuge to obtain plasma samples. A certain volume of plasma was pipetted to the sample receiving plate (three replicates) as T60-plasma samples.
(§8) (8) During sample treatment, all samples were equilibrated with the matrix (i.e., blank whole blood or blank plasma of the same volume was added) and mixed well.
(§9) (9) 1-fold volume of pure water was added to the equilibrated sample, and then a certain volume of stop solution containing internal standard compound was added to terminate the reaction.
(§10) (10) The analytes and control compounds in the samples were determined by liquid chromatography-tandem mass spectrometry (LC-MS/MS) method. The ratio of analyte peak area to internal standard peak area was used to represent the concentration in the sample.
(§11) See Table 7 for the experimental results. Wherein KB/P represents the concentration ratio of the compound in whole blood and plasma. KE/P represents the concentration ratio of the compound in red blood cells and plasma, and recovery (%) represents the recovery of the compound in whole blood.

[2] = Pharmacokinetic study in Beagle dogs; format: in vivo; details: male Beagle dogs; for AUC0-last / Cl / T1/2 / Vd / Cmax / TMax: whole blood
Method: To evaluate the pharmacokinetic behavior of the compounds of the present disclosure in male Beagle dogs.
The compounds to be tested were dissolved in the vehicle (5% DMSO/10% solutol/85% water). Four male beagle dogs were divided into 2 groups of 2. Group 1 animals were administered a single intravenous bolus injection (i.v.) of the compounds at a dose of 1 mg/kg. Group 2 animals were administered a single dose of the compounds by gavage (p.o.) at a dose of 5 mg/kg. Whole blood samples were collected at 0.083 (intravenous bolus group only), 0.25, 0.5, 1, 2, 4, 8 and 24 hours after dosing. The LC-MS/MS method was used to determine the concentration of the test compound in whole blood samples.

[3] = In vitro determination of whole blood to plasma concentration ratios, mouse; format: in vitro ADME; details: CD-1 mouse whole blood, 1 μM, 37° C., 60 minutes
Method: as §1, §2, §3, §4, §5, §6, §7, §8, §9, §10, §11

AsPC-1 cells = experiment: In vitro cell proliferation experiment (5 days), AsPC-1; format: cell-based; details: AsPC-1, 5 days; read-out: Inhibitory Activity IC50
Method: RPMI 1640 medium, DMEM, Ham's F12 medium, F12K medium, IMDM and penicillin/streptomycin antibiotics were purchased from Gibco, fetal bovine serum was purchased from Hyclone, Envision multilabel plate reader (PerkinElmer). […]
The test compound was diluted by 5-fold to 8 concentrations with a pipette, i.e., from 2 mM to 25.6 nM, and replicate wells were set up for the experiment. […] Another cell plate was prepared, and the signal value was read as the maximum value (the maximum value in the following equation) on the day of dosing for data analysis.
50 μL of cell viability chemiluminescent detection reagent was added to the cell plate and incubated at room temperature for 30 minutes to stabilize the luminescence signal. A multilabel plate reader was used for reading. […]

KB/P (concentration ratio of the compound in whole blood and plasma) [1]	KE/P (concentration ratio of the compound in red blood cells and plasma) [1]	Recovery (%) of the compound in whole blood [1] [%]	AUC0-last ([2]; i.v. 1 mg/kg) [µM·h]	Cl ([2]; i.v. 1 mg/kg) [mL/min/kg]	T1/2 ([2]; i.v. 1 mg/kg) [h]	Vd ([2]; i.v. 1 mg/kg) [L/kg]	F(%) ([2]; p.o. 5 mg/kg)	AUC0-last ([2]; p.o. 5 mg/kg) [µM·h]	Cmax ([2]; p.o. 5 mg/kg) [nM]	T1/2 ([2]; p.o. 5 mg/kg) [h]	TMax ([2]; p.o. 5 mg/kg) [h]	KB/P (concentration ratio of the compound in whole blood and plasma) [3]	KE/P (concentration ratio of the compound in red blood cells and plasma) [3]	Recovery (%) of the compound in whole blood [3] [%]	IC50 (AsPC-1 cells) [nM]	SMILES
3.5	6.5	96.4	7.91	1.9	24.5	3.8	22	8.72	472	22.4	1.5	5.3	9.4	101.5	2.1	CCn1c(-c2cc(N3CCN(C)CC3)cnc2C(C)OC)c2c3cc(ccc31)-c1csc(n1)CC(NC(=O)C1C(C)C1C)C(=O)N1NC(C(=O)OCC(C)(C)C2)C2CC1C2 (single isomer, unassigned) [Compound 6A]
2.6	5.2	102.6	4.712	4.2	10.3	3.0	33.2	7.632	618	12.0	1.0	5.1	8.1	97.3	6.6	CCn1c(-c2cc(N3CCN(C)CC3)cnc2C(C)OC)c2c3cc(ccc31)-c1csc(n1)CC(NC(=O)C1CC1C)C(=O)N1NC(C(=O)OCC(C)(C)C2)C2CC1C2 (single isomer, unassigned) [Compound 7A]
